Values quoted from earlier work, collected in patent publication US20050148593A1, “Compounds, compositions, and methods” (priority 2003, published 2005).

tested on: A549 cells; details: data provided by National Cancer Institute, Developmental Therapeutic Program

Question: With `O=c1[nH]cc(F)c(=O)[nH]1` [5-fluorouracil] as the compound, how does the GI50 read?
Answer: 1000 nM

Question: With `COc1cccc2c1C(=O)c1c(O)c3c(c(O)c1C2=O)C[C@@](O)(C(=O)CO)C[C@@H]3O[C@H]1C[C@H](N)[C@H](O)[C@H](C)O1` [doxorubicin] as the compound, how does the GI50 read?
Answer: 63 nM

Question: With `NC(=O)NO` [hydroxyurea] as the compound, how does the GI50 read?
Answer: 500000 nM

Question: With `CC(=O)O[C@H]1C(=O)[C@@]2(C)[C@H]([C@H](OC(=O)c3ccccc3)[C@]3(O)C[C@H](OC(=O)[C@H](O)[C@@H](NC(=O)c4ccccc4)c4ccccc4)C(C)=C1C3(C)C)[C@]1(OC(C)=O)CO[C@@H]1C[C@@H]2O` [paclitaxel] as the compound, how does the GI50 read?
Answer: 4 nM
